Assay: xn = mol fraction of the nth substance listed

CCOCCOCCOCC + CCOC(=O)OCC
viscosity [mPa·s], 101.33 kPa
Details | 298.15 K | 308.15 K | 318.15 K
x1 = 0.0221 | 0.763 | 0.667 | 0.584
x1 = 0.0409 | 0.776 | 0.675 | 0.592
x1 = 0.0945 | 0.812 | 0.699 | 0.609
x1 = 0.1858 | 0.863 | 0.741 | 0.643
x1 = 0.2214 | 0.89 | 0.758 | 0.656
x1 = 0.2775 | 0.923 | 0.784 | 0.677
x1 = 0.3669 | 0.972 | 0.822 | 0.707
x1 = 0.4971 | 1.041 | 0.879 | 0.747
x1 = 0.5997 | 1.092 | 0.917 | 0.775
x1 = 0.6836 | 1.133 | 0.947 | 0.801
x1 = 0.7747 | 1.17 | 0.979 | 0.825
x1 = 0.8683 | 1.214 | 1.009 | 0.849
x1 = 0.9296 | 1.239 | 1.027 | 0.862
x1 = 0.9694 | 1.255 | 1.04 | 0.871

CCOC(=O)CCl + CCCCCCC
viscosity [mPa·s], 101.33 kPa
Details | x1 = 0.1037 | x1 = 0.203 | x1 = 0.3009 | x1 = 0.4005 | x1 = 0.4992 | x1 = 0.6048 | x1 = 0.705 | x1 = 0.8022 | x1 = 0.8954
298.15 K | 0.419 | 0.45 | 0.484 | 0.53 | 0.585 | 0.651 | 0.726 | 0.817 | 0.93
303.15 K | 0.398 | 0.424 | 0.457 | 0.498 | 0.545 | 0.608 | 0.676 | 0.761 | 0.859
308.15 K | 0.378 | 0.402 | 0.432 | 0.469 | 0.522 | 0.569 | 0.634 | 0.71 | 0.8

CCOC(=O)CCl + Brc1ccccc1
viscosity [mPa·s], 101.3 kPa
Details | x1 = 0.1089 | x1 = 0.2034 | x1 = 0.3024 | x1 = 0.3976 | x1 = 0.5011 | x1 = 0.6018 | x1 = 0.6992 | x1 = 0.7963 | x1 = 0.8948
298.15 K | 1.079 | 1.079 | 1.08 | 1.082 | 1.085 | 1.087 | 1.092 | 1.096 | 1.098
303.15 K | 1.012 | 1.011 | 1.01 | 1.011 | 1.012 | 1.014 | 1.017 | 1.018 | 1.01
308.15 K | 0.947 | 0.943 | 0.94 | 0.938 | 0.938 | 0.942 | 0.941 | 0.941 | 0.939

CC(C)OCCO + CCCO
298.15 K, 101.33 kPa
Details | viscosity [mPa·s]
x1 = 0.0192 | 1.947
x1 = 0.0257 | 1.944
x1 = 0.045 | 1.941
x1 = 0.0645 | 1.938
x1 = 0.081 | 1.933
x1 = 0.1072 | 1.93
x1 = 0.1486 | 1.927
x1 = 0.1863 | 1.923
x1 = 0.2438 | 1.919
x1 = 0.2942 | 1.914
x1 = 0.3545 | 1.916
x1 = 0.3782 | 1.921
x1 = 0.4251 | 1.929
x1 = 0.4749 | 1.938
x1 = 0.5261 | 1.949
x1 = 0.5659 | 1.958
x1 = 0.6184 | 1.971
x1 = 0.6608 | 1.983
x1 = 0.7 | 1.996
x1 = 0.7606 | 2.015
x1 = 0.8023 | 2.025
x1 = 0.8623 | 2.042
x1 = 0.8845 | 2.052
x1 = 0.9485 | 2.064
